Experimental data from the supplement of paper PMC9103864.

Tests used:
[1] = tested on: BMSC (primary human bone marrow mesenchymal stromal cells); assay: absolute EC50 for viability; higher = less sensitive
[2] = tested on: BMSC (primary human bone marrow mesenchymal stromal cells); assay: drug sensitivity score (DSS); higher = more sensitive

SMILES | absolute EC50 for viability [1] [µM] | drug sensitivity score [2]
CC[C@H](NC(=O)[C@H](C)NC)C(=O)N1C[C@@H](O)C[C@H]1Cc1c(-c2[nH]c3cc(F)ccc3c2C[C@@H]2C[C@H](O)CN2C(=O)[C@H](CC)NC(=O)[C@H](C)NC)[nH]c2cc(F)ccc12 [Birinapant] | > 1 | 0
Cc1cc(-c2ncc(CC(=O)Nc3ccc(-c4cnccn4)cn3)cc2C)ccn1 [NVP-LGK974] | > 10 | 0.4
CO[C@@H]1[C@H](N(C)C(=O)c2ccccc2)C[C@H]2O[C@]1(C)n1c3ccccc3c3c4c(c5c6ccccc6n2c5c31)C(=O)NC4 [Midostaurin] | 1.65 | 7.5
COc1cc2c(cc1OC(C)C)[C@H](c1ccc(Cl)cc1)N(c1ccc(N(C)C[C@H]3CC[C@H](N4CCN(C)C(=O)C4)CC3)cc1)C(=O)C2 [NVP-CGM097] | 4.61 | 9.2
Cc1nc(Nc2ncc(C(=O)Nc3c(C)cccc3Cl)s2)cc(N2CCN(CCO)CC2)n1 [Dasatinib] | 0.132 | 9.2
C[C@@H](Nc1cc(F)cc(F)c1)c1cc(C(=O)N(C)C)cc2c(=O)cc(N3CCOCC3)oc12 [AZD-8186] | > 1 | 3.9
Cc1cnc(-c2ccccc2C(C)C)nc1NCc1ccc(-n2ccnn2)cc1 [ML323] | > 10 | 0
CN1CCN(c2ccc3nc(-c4c(N)c5c(F)cccc5[nH]c4=O)[nH]c3c2)CC1 [Dovitinib] | > 10 | 0.9
C[C@H](Nc1ncnc2[nH]cnc12)c1cc2ccc(F)cc2nc1-c1ccccn1 [AMG319] | > 1 | 0.1
O=C(Nc1ccncc1)C(=O)c1cn(Cc2ccc(Cl)cc2)c2ccccc12 [Indibulin] | > 10 | 0
CO[C@H]1CC[C@H](N2C(=O)CNc3ncc(-c4ccc(C(C)(C)O)nc4)nc32)CC1 [CC-223] | 6.04 | 4.4
COc1c(OCCCN2CCOCC2)ccc2c3n(c(=NC(=O)c4cnc(N)nc4)nc12)CCN3 [Copanlisib] | 0.126 | 13
O=C(O)CC[C@H]1CC[C@@](c2cc(F)ccc2F)(S(=O)(=O)c2ccc(Cl)cc2)CC1 [MK-0752] | > 1 | 0
CNC(=O)c1ccc(-c2cnc3ncc(Cc4ccc5ncccc5c4)n3n2)cc1F [Capmatinib] | > 1 | 0.5
CC(C)[C@@H](CS(=O)(=O)C(C)C)N1C(=O)[C@@](C)(CC(=O)O)C[C@H](c2cccc(Cl)c2)[C@H]1c1ccc(Cl)cc1 [AMG-232] | 0.185 | 18.7
NCC(=O)Nc1ccc(-n2nc(C(F)(F)F)cc2-c2ccc3c(ccc4ccccc43)c2)cc1 | > 25 | 0.5
CC1(C)CC[C@]2(NC(=O)C(C)(F)F)CC[C@]3(C)[C@H](C(=O)C=C4[C@@]5(C)C=C(C#N)C(=O)C(C)(C)[C@@H]5CC[C@]43C)[C@@H]2C1 [Omaveloxolone] | 3.77 | 4.7
Cc1nc(=O)c2cc(CN(C)c3ccc(C(=O)N[C@@H](CCC(=O)O)C(=O)O)s3)ccc2[nH]1 [Raltitrexed] | > 1 | 0
Cc1cc(C(C)Nc2ccccc2)c2nc(N3CCOCC3)cc(=O)n2c1 (stereo not drawn) [TGX-221] | > 10 | 0.3
CN1CCN(C2CCC(n3cc(-c4ccc(Oc5ccccc5)cc4)c4c(N)ncnc43)CC2)CC1 (stereo not drawn) | 1 | 11.1

SMILES | absolute EC50 for viability [1] [µM] | drug sensitivity score [2]
CNC(=O)c1ccc(N2C(=S)N(c3ccc(C#N)c(C(F)(F)F)c3)C(=O)C2(C)C)cc1F [Enzalutamide] | > 10 | 0
Cc1c(Cn2c(C)nc3c(C(=O)O)cc(N4CCOCC4)cc32)cccc1C(F)(F)F | > 10 | 0
OC[C@H]1O[C@@H](n2cnc3c2N=CNC[C@H]3O)C[C@@H]1O [Pentostatin] | > 10 | 0.4
Cc1ccc(NC(=O)c2ccc(CN3CC[C@H](N(C)C)C3)c(C(F)(F)F)c2)cc1Nc1nccc(-c2cncnc2)n1 [Bafetinib] | > 1 | 1.9
NCCNc1ccc(NCCN)c2c1C(=O)c1ccncc1C2=O [Pixantrone] | > 10 | 0
O=C1CCC(N2C(=O)c3ccccc3C2=O)C(=O)N1 (stereo not drawn) [Thalidomide] | > 10 | 0
Cc1[nH]nc(C(F)(F)F)c1Cc1sc2c(c1C(=O)N1C[C@](C)(O)CO1)c(=O)n(C)c(=O)n2C(C)C [AZD3965] | > 1 | 0
CC(C)(C)c1nc(-c2cccc(NS(=O)(=O)c3c(F)cccc3F)c2F)c(-c2ccnc(N)n2)s1 [Dabrafenib] | > 2.5 | 0
CNc1ncc2cc(-c3cc(NC(=O)NCCC(C)(C)C)c(F)cc3C)c(C)nc2n1 | > 10 | 6.2
CNC(=O)c1cccc2cc(Oc3ccnc4cc(OCC5(N)CC5)c(OC)cc34)ccc12 [Lucitanib] | > 10 | 9
NC(=S)N/N=C/c1ncccc1N [Triapine] | > 10 | 0
Cn1ncc(Cl)c1-c1cc(C(=O)N[C@H](CN)Cc2ccc(F)c(F)c2)oc1Cl [Uprosertib] | > 10 | 2.4
Clc1ccc(C(c2ccccc2Cl)C(Cl)Cl)cc1 (stereo not drawn) [Mitotane] | > 10 | 0
CC(C)C[C@H](NC(=O)[C@H](CCc1ccccc1)NC(=O)CN1CCOCC1)C(=O)N[C@@H](Cc1ccccc1)C(=O)N[C@@H](CC(C)C)C(=O)[C@@]1(C)CO1 [Carfilzomib] | 0.0187 | 19.7
Cc1ccc(C(=O)N(CCCN)[C@@H](c2oc3cc(Cl)ccc3c(=O)c2Cc2ccccc2)C(C)C)cc1 | > 0.1 | 0
COc1cc(NS(C)(=O)=O)ccc1Nc1c2ccccc2nc2ccccc12 [Amsacrine] | > 10 | 2.8
CN(CC(=O)N(Cc1ccc(C2CCCCC2)cc1)c1ccc(C(=O)O)cc1)S(=O)(=O)c1c(F)c(F)c(F)c(F)c1F [SH-4-54] | > 25 | 4
O=C(/C=C/c1cccc(S(=O)(=O)Nc2ccccc2)c1)NO [Belinostat] | 2.23 | 7.2
CCn1c(C(=O)N(C2CC2)C2CC2)cc2c3c(ncn3C)c(Nc3cc(C)n(C)n3)nc21 | > 10 | 1
C[C@@H](NC(=O)c1ncnc(N)c1Cl)c1ncc(C(=O)Nc2cc(C(F)(F)F)c(Cl)cn2)s1 [TAK-580] | > 10 | 5.7

SMILES | absolute EC50 for viability [1] [µM] | drug sensitivity score [2]
CC(C)C[C@@H](C(=O)N[C@H](C(=O)OC1CCCC1)c1ccccc1)[C@H](O)C(=O)NO [Tosedostat] | > 10 | 0
O=c1[nH]c(=O)n([C@H]2C[C@H](O)[C@@H](CO)O2)cc1F [Floxuridine] | > 10 | 0
O=C(NCc1ccncc1)C12CC3CC(C1)CC(c1ccc(Cl)cc1)(C3)C2 | > 50 | 3.3
CCN(CC)CCN(Cc1ccc(-c2ccc(C(F)(F)F)cc2)cc1)C(=O)Cn1c(SCc2ccc(F)cc2)nc(=O)c2c1CCC2 [Darapladib] | > 1 | 0
CCCOc1ccn2c(C(C)=O)cc(-c3ccccc3S(C)(=O)=O)c2c1 [GSK2801] | > 10 | 0
Cc1ccc(-n2nc(C(C)(C)C)cc2NC(=O)Nc2ccc(OCCN3CCOCC3)c3ccccc23)cc1 [Doramapimod] | > 10 | 1
NC(=O)N1CCC(CC(=O)N2CCC([C@H]3c4ncc(Br)cc4CCc4cc(Cl)cc(Br)c43)CC2)CC1 [Lonafarnib] | > 100 | 4.4
N#CCNC(=O)c1ccc(-c2ccnc(Nc3ccc(N4CCOCC4)cc3)n2)cc1 [Momelotinib] | > 10 | 5.1
C[C@@H]1CN(CC(=O)Nc2ccc3c(c2)Cc2cccc(-c4cc(=O)cc(N5CCOCC5)o4)c2S3)C[C@H](C)O1 | > 25 | 0.6
NC(=O)c1cccc(-c2cccc(OC(=O)NC3CCCCC3)c2)c1 [URB597] | > 1 | 0
NC(=O)c1cccc2cn(-c3ccc([C@@H]4CCCNC4)cc3)nc12 [Niraparib] | > 10 | 0.8
Cn1cc(CNCC2CCN(c3ncc(C(=O)NO)cn3)CC2)c2ccccc21 [Quisinostat] | 0.181 | 8.3
CN1CCN(c2cc(C(=O)Nc3ccc4c(c3)-c3c(c(C(N)=O)nn3-c3ccc(F)cc3)CC4)c(Cl)cn2)CC1 [PHA 408] | > 10 | 1.3
O=C(/C=C\n1cnc(-c2cc(C(F)(F)F)cc(C(F)(F)F)c2)n1)NNc1cnccn1 [Selinexor] | > 10 | 3.1
Cn1cnc2c(F)c(Nc3ccc(Br)cc3F)c(C(=O)NOCCO)cc21 [Binimetinib] | > 1 | 1.9
CC(=O)c1cc2c(o1)C(=O)c1ccccc1C2=O [Napabucasin] | 0.64 | 17.6
O=C(Nc1cccnc1)N1CCC(Cc2cccc(Oc3ccc(C(F)(F)F)cn3)c2)CC1 [PF-3845] | 9.93 | 0
Cc1nc2cccc(N)c2c(=O)n1C1CCC(=O)NC1=O (stereo not drawn) [CC122] | 9.93 | 0
O=C(Nc1ccc2[nH]nc(-c3ccncc3)c2c1)[C@@H]1CCN(CC(=O)N2CCN(c3ccc(-c4ncccn4)cc3)CC2)C1 | > 10 | 4
